Target: T1, vanilloid receptor 1 (VR1/TRPV1 receptor) (Homo sapiens, UniProt Q8NER1)
T1 construct: expressed in transfected cells; host or cells: CHO K1 cells (ECACC), stably transfected
Assay: VR1/TRPV1 receptor affinity, capsaicin stimulus (human)
Format: cell-based, human being
Set-up: key to (f) Ki (human being) [nM] Cap: result in words: AG=agonist; pAG=partial agonist; NE=no effect
Conditions: @ 5 μM, Tables 8-12

T1 sequence (Q8NER1 whole entry): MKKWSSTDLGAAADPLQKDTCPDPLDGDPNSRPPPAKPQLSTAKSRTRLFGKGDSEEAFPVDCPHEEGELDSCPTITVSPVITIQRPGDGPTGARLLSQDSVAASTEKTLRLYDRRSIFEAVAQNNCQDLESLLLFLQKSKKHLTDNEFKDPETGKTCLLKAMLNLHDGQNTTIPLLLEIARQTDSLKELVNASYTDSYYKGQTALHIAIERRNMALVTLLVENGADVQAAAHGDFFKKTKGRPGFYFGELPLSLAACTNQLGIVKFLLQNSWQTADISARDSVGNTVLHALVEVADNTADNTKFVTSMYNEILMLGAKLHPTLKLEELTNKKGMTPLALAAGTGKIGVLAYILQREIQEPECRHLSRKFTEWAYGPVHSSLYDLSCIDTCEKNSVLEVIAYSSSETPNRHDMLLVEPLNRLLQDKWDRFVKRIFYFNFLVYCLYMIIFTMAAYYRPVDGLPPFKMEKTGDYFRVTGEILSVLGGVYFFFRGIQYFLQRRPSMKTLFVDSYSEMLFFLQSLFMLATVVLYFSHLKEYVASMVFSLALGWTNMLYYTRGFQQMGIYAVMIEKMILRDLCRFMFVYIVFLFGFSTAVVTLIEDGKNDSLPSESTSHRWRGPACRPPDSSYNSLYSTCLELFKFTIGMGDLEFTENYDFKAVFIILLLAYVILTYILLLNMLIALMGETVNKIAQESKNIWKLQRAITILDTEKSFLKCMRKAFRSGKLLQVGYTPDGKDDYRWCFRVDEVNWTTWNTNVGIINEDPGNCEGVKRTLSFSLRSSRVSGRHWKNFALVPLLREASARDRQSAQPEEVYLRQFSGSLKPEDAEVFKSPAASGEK

| Molecule | (f) Ki (human being) [nM] Cap: inhibition (as a percentage) |
| --- | --- |
| 1-[[2-(3,4-Difluoro-phenyl)-5-(trifluoromethyl)-2H-pyrazol-3-yl]-methyl]-3-[3-fluoro-4-(2-hydroxy-ethoxy-methyl)-phenyl]-urea [Example A132] | 48% @ 5 μM |
| 1-[[5-tert-Butyl-2-(3-fluorophenyl)-2H-pyrazol-3-yl]-methyl]-3-[3-fluoro-4-(3-hydroxy-azetidin-1-yl)-phenyl]-urea [Example C8] | 53% @ 5 μM |
| 2-Chloro-4-[[[2-(3-chlorophenyl)-5-(trifluoromethyl)-2H-pyrazol-3-yl]-methyl-carbamoyl]amino]-benzoic acid [Example E54] | 20% @ 5 μM |
| 4-[[[5-tert-Butyl-2-(3-chlorophenyl)-2H-pyrazol-3-yl]-methyl-carbamoyl]amino]-2-chloro-benzoic acid [Example E55] | 28% @ 5 μM |

Same assay, conditions: Tables 8-12

| (f) Ki (human being) [nM] Cap: result in words | Molecule |
| --- | --- |
| AG | COc1c(F)cc(C(C)C(=O)NCc2cc(C(C)(C)C)nn2-c2ccc(F)c(Cl)c2)cc1F (centres unmarked) [Example A5, N-[[5-tert-Butyl-2-(3-chloro-4-fluoro-phenyl)-2H-pyrazol-3-yl]-methyl]-2-(3,5-difluoro-4-methoxy-phenyl)-propionamide] |
| AG | CC(C)(C)c1cc(CNC(=O)Nc2cc(F)c(O)c(F)c2)n(-c2cccc(Cl)c2)n1 [Example A11, 1-[[5-tert-Butyl-2-(3-chlorophenyl)-2H-pyrazol-3-yl]-methyl]-3-(3,5-difluoro-4-hydroxy-phenyl)-urea] |
| AG | COc1ccc(NC(=O)NCc2cc(C(C)(C)C)nn2-c2cccc(Cl)c2)cc1OC [Example A13, 1-[[5-tert-Butyl-2-(3-chlorophenyl)-2H-pyrazol-3-yl]-methyl]-3-(3,4-dimethoxyphenyl)-urea] |
| AG | COc1cc(NC(=O)NCc2cc(C(F)(F)F)nn2-c2cccc(Cl)c2)ccc1O [Example A15, 1-[[2-(3-Chlorophenyl)-5-(trifluoromethyl)-2H-pyrazol-3-yl]-methyl]-3-(4-hydroxy-3-methoxy-phenyl)-urea] |

Same assay, conditions: Tables 8-12, read-out: (f) Ki (human being) [nM] Cap

| Molecule | Ki |
| --- | --- |
| 1-[[5-tert-Butyl-2-(3-chlorophenyl)-2H-pyrazol-3-yl]-methyl]-3-[3-fluoro-4-(hydroxymethyl)-phenyl]-urea [Example A55] | 3 nM |
| 4-[1-[[2-(3-Chlorophenyl)-5-(trifluoromethyl)-2H-pyrazol-3-yl]-methyl-carbamoyl]-ethyl]-2-fluoro-N-(oxetan-3-yl)-benzamide [Example E19] | 41 nM |
| 4-[1-[[2-(3-Chlorophenyl)-5-(trifluoromethyl)-2H-pyrazol-3-yl]-methyl-carbamoyl]-ethyl]-2-fluoro-N-[4-(trifluoromethyl)-phenyl]-benzamide [Example E48] | 27 nM |
| 4-[1-[[2-(3-Chlorophenyl)-5-(trifluoromethyl)-2H-pyrazol-3-yl]-methyl-carbamoyl]-ethyl]-2-fluoro-N-methyl-benzamide [Example E11] | 11 nM |
| 4-[1-[[2-(3-Chlorophenyl)-5-(trifluoromethyl)-2H-pyrazol-3-yl]-methyl-carbamoyl]-ethyl]-2-fluoro-N-thiazol-2-yl-benzamide [Example E52] | 59 nM |
| 4-[1-[[5-tert-Butyl-2-(3-chloro phenyl)-2H-pyrazol-3-yl]-methyl-carbamoyl]-ethyl]-N-(3-fluorophenyl)-benzamide [Example E40] | 4 nM |
| 4-[1-[[5-tert-Butyl-2-(3-chlorophenyl)-2H-pyrazol-3-yl]-methyl-carbamoyl]-ethyl]-2-fluoro-N-[4-(trifluoromethyl)-phenyl]-benzamide [Example E49] | 3 nM |
| 4-[1-[[5-tert-Butyl-2-(3-chlorophenyl)-2H-pyrazol-3-yl]-methyl-carbamoyl]-ethyl]-2-fluoro-N-phenyl-benzamide [Example E29] | 5 nM |
| 4-[1-[[5-tert-Butyl-2-(3-chlorophenyl)-2H-pyrazol-3-yl]-methyl-carbamoyl]-ethyl]-N-(4-chlorophenyl)-2-fluoro-benzamide [Example E35] | 2 nM |
| 4-[1-[[5-tert-Butyl-2-(3-chlorophenyl)-2H-pyrazol-3-yl]-methyl-carbamoyl]-ethyl]-N-(4-chlorophenyl)-benzamide [Example E34] | 0.5 nM |
| 4-[1-[[5-tert-Butyl-2-(3-chlorophenyl)-2H-pyrazol-3-yl]-methyl-carbamoyl]-ethyl]-N-(4-fluorophenyl)-benzamide [Example E42] | 1 nM |
| 4-[1-[[5-tert-Butyl-2-(3-chlorophenyl)-2H-pyrazol-3-yl]-methyl-carbamoyl]-ethyl]-N-[4-(trifluoromethyl)-phenyl]-benzamide [Example E47] | 3 nM |
| 4-[1-[[5-tert-Butyl-2-(3-chlorophenyl)-2H-pyrazol-3-yl]-methyl-carbamoyl]-ethyl]-N-phenyl-benzamide [Example E27] | 2 nM |
| 4-[[[2-(3-Chlorophenyl)-5-(trifluoromethyl)-2H-pyrazol-3-yl]-methyl-carbamoyl]-methyl]-2-fluoro-N-(4-fluorophenyl)-benzamide [Example E38] | 3 nM |
| 4-[[[2-(3-Chlorophenyl)-5-(trifluoromethyl)-2H-pyrazol-3-yl]-methyl-carbamoyl]-methyl]-N-(4-fluorophenyl)-benzamide [Example E36] | 14 nM |
| 4-[[[2-(3-Chlorophenyl)-5-(trifluoromethyl)-2H-pyrazol-3-yl]-methyl-carbamoyl]-methyl]-N-[4-(trifluoromethyl)-phenyl]-benzamide [Example E51] | 49 nM |
| 4-[[[2-(3-Chlorophenyl)-5-(trifluoromethyl)-2H-pyrazol-3-yl]-methyl-carbamoyl]-methyl]-N-phenyl-benzamide [Example E26] | 25 nM |
| 4-[[[5-tert-Butyl-2-(3-chlorophenyl)-2H-pyrazol-3-yl]-methyl-carbamoyl]-methyl]-2-fluoro-N-(4-fluorophenyl)-benzamide [Example E39] | 2 nM |
| 4-[[[5-tert-Butyl-2-(3-chlorophenyl)-2H-pyrazol-3-yl]-methyl-carbamoyl]-methyl]-N-(4-chlorophenyl)-benzamide [Example E30] | 3 nM |
| 4-[[[5-tert-Butyl-2-(3-chlorophenyl)-2H-pyrazol-3-yl]-methyl-carbamoyl]-methyl]-N-(4-fluorophenyl)-benzamide [Example E37] | 5 nM |
| 4-[[[5-tert-Butyl-2-(3-chlorophenyl)-2H-pyrazol-3-yl]-methyl-carbamoyl]-methyl]-N-[4-(trifluoromethyl)-phenyl]-benzamide [Example E50] | 12 nM |
| 4-[[[5-tert-Butyl-2-(3-chlorophenyl)-2H-pyrazol-3-yl]-methyl-carbamoyl]amino]-2-chloro-benzoic acid methyl ester [Example E60] | 19 nM |
| 4-[[[5-tert-Butyl-2-(3-chlorophenyl)-2H-pyrazol-3-yl]-methyl-carbamoyl]amino]-2-fluoro-N,N-dimethyl-benzamide [Example E12] | 62 nM |
| 4-[[[5-tert-Butyl-2-(3-chlorophenyl)-2H-pyrazol-3-yl]-methyl-carbamoyl]amino]-2-methoxy-benzamide [Example E7] | 66 nM |
